# Residues, ends and D or L forms follow the SMILES beside them.
# Tests used:
# [1] = tested on: P. aeruginosa; assay: Serial passage assay (acquisition of drug resistance); assay type: cell-based, Pseudomonas aeruginosa; conditions: sub-MBC treatment
# Protocol: For the PI uptake assay, bacteria were cultured in the mid-log phase and diluted to 5 × 10^5 CFU/mL in PBS (pH 7.4). The peptides were treated with 40 μg/mL for 10 min, and then 10 μM PI was added and incubated for 20 min. The PI fluorescence was measured with a flow cytometric assay using a FACS Canto II (BD Biosciences, CA, USA), and the data were analyzed using FlowJo software (Tree Star, Ashland, OR, USA). NPN uptake and a membrane depolarization assay were performed as previously described, with some changes. Briefly, 1 × 10^4 CFU/mL of bacteria were place on a 96-well plate, and then 10 μM NPN or 4 μM DiSC3(5) was added, and AMPR-22 was administered. The fluorescence signal was measured for 10 min using a SpectraMax Plus 384 microplate reader (Molecular Devices, San Jose, CA, USA). For the NPN uptake assay, AMPR-22 was administered 3 min after the start of the fluorescence measurements. The ATP leakage assay was performed using a BacTiter-glo™ kit (Promega, Madison, WI, USA) and the manufacturer’s instructions with minor modifications. […] The luminescence signal was measured using a SpectraMax Plus 384 microplate reader (Molecular Devices, San Jose, CA, USA). […] Sub-MBC concentrations of peptide were administered to 1 mL of cultured cells, and then the MBC values were determined for every passage. […]
# [2] = tested on: Pseudomonas aeruginosa ATCC 27853; assay type: cell-based
# Protocol: (§1) The minimum bactericidal concentration (MBC) was determined as previously described with minor modifications. Briefly, bacteria were cultured in the mid-log phase and diluted to 5 × 10^5 colony-forming unit (CFU)/mL in 10 mM sodium phosphate buffer (pH 7.4) with a 1% volume of TS broth. They were incubated for 1 h with various peptides which were two-fold diluted serially from 64 μg/mL to 0 μg/mL concentrations in a 96-well plate. The samples were inoculated TS agar plate and incubated overnight at 37 °C. The value of MBC was determined at the lowest concentrations at which no colonies were identified.
# (§2) We used the CFU counting method to measure antibacterial activity, with all bacteria cultured to the mid-log phase in an appropriate broth medium. Bacterial CFUs were counted after overnight culture at 37 °C on TS or LB agar plates. The MBC value and antibacterial activity in blood components were determined as previously described. Mouse and human whole blood were collected and diluted with PBS (pH 7.4) to measure the ex vivo antibacterial activity of AMPR-22. For that test, AMPR-22 (10 μg) was added to each whole blood solution and incubated at 37 °C with shaking at 200 rpm. At each time point, it was incubated with bacteria (1 × 10^3 CFU) for 30 min. Each sample was inoculated on an LB agar plate, and CFU counting was performed. To measure the in vivo activity of AMPR-22, 1 × 10^8 CFU of bacteria were injected into BALB/c mice, and an hour later, 10 mg/kg of the test peptides were injected. Blood samples were collected by tail cut, serially diluted with PBS (pH 7.4), and inoculated on LB-agar plates, followed by CFU counting. To estimate the functional half-life of AMPR-22, 40 mg/kg of each tested peptide were injected into mice. Whole blood sampling was performed by cardiac puncture, and the plasma was isolated by centrifugation (2000× g, 15 min). The isolated plasma was incubated with bacteria (1 × 10^3 CFU) for an hour, and then the CFU counting method was performed.
# [3] = tested on: Staphylococcus aureus ATCC 29213; assay type: cell-based
# Protocol: as §1, §2
# [4] = tested on: Streptococcus pneumoniae NCCP 14585; assay type: cell-based; conditions: NCCP 14585, 1 h
# Protocol: as §1, §2
# [5] = tested on: Methicillin-resistant S. aureus (MRSA) ATCC 33591; assay type: cell-based, Staphylococcus aureus; conditions: Table 2; ATCC 33591; modified MBC
# Protocol: as §1, §2
# [6] = tested on: Vancomycin-resistant S. aureus NCCP 15872; assay type: cell-based, Staphylococcus aureus; conditions: Vancomycin-resistant NCCP 15872, 1 h
# Protocol: as §1, §2
# [7] = tested on: Carbapenem-resistant P. aeruginosa (CRPA), clinical isolate; assay type: cell-based, Pseudomonas aeruginosa; conditions: 1 h
# Text: Acinetobacter baumannii (ATCC 19606), B. subtilis (ATCC 6633), E. aerogenes (ATCC 13048), E. coli (ATCC 25922), E. faecalis (ATCC 19433), E. faecium (ATCC 19434), K. pneumoniae (ATCC 13883), P. aeruginosa (ATCC 27853), S. aureus (ATCC 29213), S. sindenensis (ATCC 23963), and MRSA (ATCC 33591) were purchased from the American Type Culture Collection (ATCC; Gaithersburg, MD, USA). Streptococcus pneumoniae (NCCP 14585), vancomycin-resistant E. faecium (NCCP 11522), and vancomycin-resistant S. aureus (NCCP 15872) were purchased from the National Culture Collection for Pathogens (NCCP; Cheongju, Korea). The isolation and use of carbapenem-resistant bacterial strains from a patient were approved (2015AN0129) by the Institutional Review Board (IRB) of Korea University Hospital. CRPA, CRKP, and CRAB were clinically isolated in Korea University Hospital (Seoul, Korea). CRPA was confirmed to be resistant to piperacillin, piperacillin-tazobactam, ceftazidime, imipenem, meropenem, gentamicin, amikacin, and ciprofloxacin. CRAB was confirmed to be resistant to piperacillin, piperacillin-tazobactam, cefepime, ceftazidime, imipenem, meropenem, gentamicin, amikacin, and ciprofloxacin. CRKP was confirmed to be resistant to piperacillin-tazobactam, cefepime, ceftazidime, imipenem, gentamicin, and ciprofloxacin. All strains were stored at –80 °C in 50% glycerol and 50% Luria-Bertani (LB) or tryptic soy (TS) broth, grown on LB or TS plates, and aerated at 37 °C.
# as §1, §2
# [8] = tested on: Acinetobacter baumannii ATCC 19606; assay: Modified MBC determination; assay type: cell-based; conditions: Table 2
# Protocol: as §1, §2
# [9] = tested on: Bacillus subtilis ATCC 6633; assay: Modified MBC determination; assay type: cell-based; conditions: Table 2
# Protocol: as §1, §2
# [10] = tested on: Enterobacter aerogenes ATCC 13048; assay: Modified MBC determination; assay type: cell-based; conditions: Table 2
# Protocol: as §1, §2
# [11] = tested on: Enterococcus faecalis ATCC 19433; assay: Modified MBC determination; assay type: cell-based; conditions: Table 2
# Protocol: as §1, §2
# [12] = tested on: Enterococcus faecium ATCC 19434; assay: Modified MBC determination; assay type: cell-based; conditions: Table 2
# Protocol: as §1, §2
# [13] = tested on: Escherichia coli ATCC 25922; assay: Modified MBC determination; assay type: cell-based; conditions: Table 2
# Protocol: as §1, §2
# [14] = tested on: Klebsiella pneumoniae ATCC 13883; assay: Modified MBC determination; assay type: cell-based; conditions: Table 2
# Protocol: as §1, §2
# [15] = tested on: Streptomyces sindenensis ATCC 23963; assay: Modified MBC determination; assay type: cell-based; conditions: Table 2
# Protocol: as §1, §2
# [16] = tested on: Carbapenem-resistant A. baumannii, clinical isolate; assay type: cell-based, Acinetobacter baumannii; conditions: 1 h
# Text: (§3) Acinetobacter baumannii (ATCC 19606), B. subtilis (ATCC 6633), E. aerogenes (ATCC 13048), E. coli (ATCC 25922), E. faecalis (ATCC 19433), E. faecium (ATCC 19434), K. pneumoniae (ATCC 13883), P. aeruginosa (ATCC 27853), S. aureus (ATCC 29213), S. sindenensis (ATCC 23963), and MRSA (ATCC 33591) were purchased from the American Type Culture Collection (ATCC; Gaithersburg, MD, USA). Streptococcus pneumoniae (NCCP 14585), vancomycin-resistant E. faecium (NCCP 11522), and vancomycin-resistant S. aureus (NCCP 15872) were purchased from the National Culture Collection for Pathogens (NCCP; Cheongju, Korea). The isolation and use of carbapenem-resistant bacterial strains from a patient were approved (2015AN0129) by the Institutional Review Board (IRB) of Korea University Hospital. […]
# (§4) The minimum bactericidal concentration (MBC) was determined as previously described with minor modifications. […] The value of MBC was determined at the lowest concentrations at which no colonies were identified.
# (§5) We used the CFU counting method to measure antibacterial activity, with all bacteria cultured to the mid-log phase in an appropriate broth medium. Bacterial CFUs were counted after overnight culture at 37 °C on TS or LB agar plates. The MBC value and antibacterial activity in blood components were determined as previously described. […]
# [17] = tested on: Carbapenem-resistant K. pneumoniae, clinical isolate; assay type: cell-based, Klebsiella pneumoniae; conditions: 1 h
# Text: as §3, §4, §5
# [18] = tested on: Vancomycin-resistant E. faecium NCCP 11522; assay type: cell-based, Enterococcus faecium; conditions: Vancomycin-resistant NCCP 11522, 1 h
# Protocol: as §1
# We used the CFU counting method to measure antibacterial activity, with all bacteria cultured to the mid-log phase in an appropriate broth medium. Bacterial CFUs were counted after overnight culture at 37 °C on TS or LB agar plates. The MBC value and antibacterial activity in blood components were determined as previously described. Mouse and human whole blood were collected and diluted with PBS (pH 7.4) to measure the ex vivo antibacterial activity of AMPR-22. For that test, AMPR-22 (10 μg) was added to each whole blood solution and incubated at 37 °C with shaking at 200 rpm. At each time point, it was incubated with bacteria (1 × 10^3 CFU) for 30 min. Each sample was inoculated on an LB agar plate, and CFU counting was performed. […]
# [19] = tested on: human erythrocytes; assay: Hemolysis assay; assay type: cell-based; conditions: 2% erythrocytes in PBS, 1 h 37 °C, absorbance 550 nm; up to / at 256 µg/mL
# Protocol: For the hemolytic assay, mouse and human whole blood was diluted with PBS (pH 7.4) and centrifuged for 10 min at 500× g. After removing the supernatant and rinsing the pellet three times with PBS, we resuspended the erythrocytes in PBS at 2% volume. The blood solution was added to the solution of peptides with two-fold serial dilution on a 96-well plate. After incubation for an hour at 37 °C, the plate was centrifuged at 2500× g for 10 min, and the absorbance of the supernatant was measured at 550 nm. The PBS-treated sample was the negative control, and the 0.1% Triton X-100–treated sample was the positive control. To measure white blood cell toxicity, mouse and human PBMCs were freshly isolated as previously described, and 70% ethanol (positive control) or AMPR-22 was administered using two-fold diluted concentrations (0 to 256 μg/mL) for 30 min. To measure cell death, a LIVE/DEAD® fixable green dead cell stain kit (Thermo Fisher Scientific, Waltham, MS, USA) was used following the manufacturer′s instructions, and flow cytometry was performed using a FACS Canto II (BD Biosciences, CA, USA). The toxicity of AMPR-22 was compared with negative (PBS-treated) and positive controls, and the data were analyzed using FlowJo software (Tree Star, OR, USA).
smiles,measurement,setting,value
CNC(C)C1CCC(N)C(OC2C(N)CC(N)C(OC3OCC(C)(O)C(NC)C3O)C2O)O1 (centres unmarked) [gentamicin],Passages after which resistance developed,[1],nine
same,Increase of the modified MBC value after 30 passages,[1]; 30 passages,64 fold
CC[C@H](C)[C@H](NC(=O)CNC(=O)[C@H](CCSC)NC(=O)CNC(=O)[C@@H](NC(=O)[C@H](C)NC(=O)[C@H](CCSC)NC(=O)[C@H](Cc1ccccc1)NC(=O)[C@@H](NC(=O)CNC(=O)[C@H](Cc1ccccc1)NC(=O)[C@H](CCCCN)NC(=O)CNC(=O)CNC(=O)[C@H](CCCCN)NC(=O)[C@H](CCCCN)NC(=O)[C@H](CCSC)NC(=O)[C@H](CCSC)NC(=O)[C@H](CCCCN)NC(=O)[C@@H](N)CCCCN)[C@@H](C)O)[C@@H](C)CC)C(=O)N[C@@H](CCCNC(=N)N)C(=O)O [AMPR-21] (H-KKMMKKGGKFGTFMAIGMGIR-OH),"MBC Value, P. aeruginosa","[2]; ATCC 27853, 1 h",4 µg/mL
same,"MBC Value, Pseudomonas aeruginosa","[2]; Table 2, ATCC 27853, modified MBC",4 µg/mL
same,"MBC Value, S. aureus","[3]; ATCC 29213, 1 h, pH 7.4",8 µg/mL
same,"MBC Value, Staphylococcus aureus","[3]; Table 2, ATCC 29213, modified MBC",4 µg/mL
same,"MBC Value, Streptococcus pneumoniae",[4],8 µg/mL
same,"MBC Value, Methicillin-resistant S. aureus",[5],8 µg/mL
same,"MBC Value, Vancomycin-resistant S. aureus",[6],8 µg/mL
same,"MBC Value, CRPA",[7],4 µg/mL
same,"MBC Value, Carbapenem-resistant P. aeruginosa",[7],4 µg/mL
same,"MBC Value, Acinetobacter baumannii",[8],4 µg/mL
same,"MBC Value, Bacillus subtilis",[9],2 µg/mL
same,"MBC Value, Enterobacter aerogenes",[10],4 µg/mL
same,"MBC Value, Enterococcus faecalis",[11],8 µg/mL
same,"MBC Value, Enterococcus faecium",[12],8 µg/mL
same,"MBC Value, Escherichia coli",[13],4 µg/mL
same,"MBC Value, Klebsiella pneumoniae",[14],4 µg/mL
same,"MBC Value, Streptomyces sindenensis",[15],4 µg/mL
same,"MBC Value, Carbapenem-resistant A. baumannii",[16],2 µg/mL
same,"MBC Value, Carbapenem-resistant K. pneumoniae",[17],8 µg/mL
same,"MBC Value, Vancomycin-resistant E. faecium",[18],8 µg/mL
same,Hemolytic activity against human erythrocytes,[19],negligible hemolytic activity
